{"source": "patent US20150374691A1", "about": "“METHODS AND MATERIALS FOR TREATING ORTHOSTATIC HYPOTENSION OR POSTURAL TACHYCARDIA SYNDROME” (Mayo Foundation for Medical Education and Research, priority 2009, published 2015)", "key": {"[1]": {"test_system": "patient with Lambert-Eaton myasthenic syndrome who also suffered from orthostatic hypotension", "assay": "blood pressure and heart rate response to head-up tilt before and after 3,4-DAP", "assay_type": "in vivo, human", "conditions": "one patient, after oral administration of 20 mg 3,4-DAP; before administration a significant drop was observed (FIG. 1)", "method": "FIG. 1 is a graph plotting the blood pressure and heart rate response to head-up tilt in a patient with orthostatic hypotension before (left) and after (right) oral administration of 20 mg of 3,4-DAP.\nThe effects of administering 3,4-DAP to a patient with orthostatic hypotension were studied. Briefly, the blood pressure and heart rate response to head-up tilt was studied in a patient with Lambert-Eaton myasthenic syndrome who also suffered from orthostatic hypotension before and after oral administration of 20 mg 3,4-DAP. Before administration of 3,4-DAP, a significant orthostatic blood pressure drop was observed after a head-up tilt (FIG. 1, left)."}, "[2]": {"test_system": "patients with myasthenic syndromes", "conditions": "among 132 patients enrolled, cited from earlier work"}}}
{"smiles": "Nc1ccncc1N", "note": "[3,4-DAP, 3,4-diaminopyridine]", "values": [{"measurement": "orthostatic blood pressure drop after a head-up tilt", "setting": "[1]", "result": "did not exhibit a significant orthostatic blood pressure drop"}, {"measurement": "seizures", "setting": "[2]; after being on the medication for years, clear cause-effect relationship not established", "result": "two patients experienced a self-limited seizure"}, {"measurement": "complications related to cardiac arrhythmias", "setting": "[2]", "result": "no noted complications related to cardiac arrhythmias"}]}
